Experiments:
[1] = Stability of ready-to-use PAA solution, pH adjusted with disodium phosphate, with or without chelant, heated at 56° C. for one hour; type: physicochemical; conditions: initial PAA 0.35%, water hardness 200 ppm, pH 5 with disodium phosphate
From the text: (§1) In these studies, peracetic acid (PAA) was combined with hard water having a water hardness of 200 parts per million (“ppm”) such that the resulting solution included a 0.35% concentration of PAA. The pH of the solution was adjusted to 5 using a pH modifier. In a first batch of the solution, the pH modifier used was ethanolamine. In a second batch of the solution, the pH modifier used was disodium phosphate. Test specimens from these two batches were created by individually adding chelants thereto. The chelants used in these studies are those used for removing ions (e.g. Calcium and Magnesium) from hard water, and included tetrasodium EDTA, TRILON® M (methylglycinediacetic acid trisodium salt (MGDA-Na3)), TRILON® C (diethylenetriaminepentaacetic acid pentasodium salt (DTPA-Na5)), sodium citrate, and DISSOLVINE® GL (glutamic acid diacetic acid tetrasodium salt (GLDA-Na4)). Test specimens from these two batches were also created that lacked any such chelants. In some instances, test specimens were created for different concentrations of certain of these chelants. Table 1 reflects test specimens made from the first batch of the solution. Table 2 reflects test specimens made from the second batch of the solution. The tables also reflect the concentration of each chelant in each specimen as a percentage. Each specimen was heated at 56° C. for one hour. At the end of the hour, the PAA concentration was determined. The final concentration of PAA is provided in Table 1 and Table 2 alongside the change in the PAA concentration as determined at the end of the hour (“Δ PAA %”).

[2] = Stability of ready-to-use PAA solution, pH adjusted with ethanolamine, with or without chelant, heated at 56° C. for one hour; type: physicochemical; conditions: initial PAA 0.35%, water hardness 200 ppm, pH 5 with ethanolamine
From the text: as §1

Compound	Final PAA Concentration (%) ([1]; chelant concentration 0.2%)	Δ PAA % ([1]; chelant concentration 0.2%)	Final PAA Concentration (%) ([1]; chelant concentration 0.6%)	Δ PAA % ([1]; chelant concentration 0.6%)	Final PAA Concentration (%) ([2]; chelant concentration 0.6%)	Δ PAA % ([2]; chelant concentration 0.6%)	Final PAA Concentration (%) ([1]; chelant concentration 0.1%)	Δ PAA % ([1]; chelant concentration 0.1%)	Final PAA Concentration (%) ([1]; chelant concentration 0.4%)	Δ PAA % ([1]; chelant concentration 0.4%)	Final PAA Concentration (%) ([2]; chelant concentration 0.1%)	Δ PAA % ([2]; chelant concentration 0.1%)	Final PAA Concentration (%) ([2]; chelant concentration 0.4%)	Δ PAA % ([2]; chelant concentration 0.4%)	Final PAA Concentration (%) ([2]; chelant concentration 0.2%)	Δ PAA % ([2]; chelant concentration 0.2%)
CC(C(=O)[O-])N(CC(=O)[O-])CC(=O)[O-].[Na+].[Na+].[Na+] (stereo not drawn) [Trilon M (liquid), methylglycinediacetic acid trisodium salt]	0.3%	−14%	0.26%	−26%	0.19%	−46%										
O=C([O-])CN(CCN(CC(=O)[O-])CC(=O)[O-])CC(=O)[O-].[Na+].[Na+].[Na+].[Na+] [Na4EDTA, tetrasodium EDTA, reference compound]							0.28%	−20%	0.18%	−49%	0.21%	−40%	0.14%	−60%		
O=C([O-])CN(CCN(CC(=O)[O-])CC(=O)[O-])CCN(CC(=O)[O-])CC(=O)[O-].[Na+].[Na+].[Na+].[Na+].[Na+] [Trilon C (liquid), diethylenetriaminepentaacetic acid pentasodium salt]	0.26%	−26%													0.22%	−37%
O=C([O-])CC[C@@H](C(=O)[O-])N(CC(=O)[O-])CC(=O)[O-].[Na+].[Na+].[Na+].[Na+] [Dissolvine (liquid), glutamic acid diacetic acid tetrasodium salt]	0.29%	−17%	0.25%	−29%	0.17%	−51%									0.23%	−34%
O=C([O-])CC(O)(CC(=O)[O-])C(=O)[O-].[Na+].[Na+].[Na+] [sodium citrate, reference compound]									0.26%	−26%			0.23%	−34%		

Source: patent publication US20230116039A1, “DISINFECTION SOLUTION WITH TWO-PART FORMULATION” (ASP GLOBAL MANUFACTURING GMBH, priority 2020, published 2023)
